Experimental data reported in US8367829B2, “Bi-functional pyrazolopyridine compounds” (Gilead Sciences, Inc., priority 2010, dated 2013).

Legend:
[1] = biological target: T1, human recombinant beta-2 adrenoreceptors (Homo sapiens, UniProt P07550); assay: Functional agonism of human recombinant beta-2 adrenoreceptors expressed in CHO cells (cAMP, HTRF); format: cell-based; settings: cAMP elevation, 30 min
T1 construct: expressed in transfected cells; host or cells: CHO cells
Experimental: Functional Agonism of Human Recombinant Beta-2 Adrenoreceptors Expressed in Chinese Hamster Oocytes (CHO)
Test compounds were incubated for 30 min with CHO cells expressing the human recombinant beta-2 adrenoreceptors. Agonism of the receptor was measured by the elevation of intracellular cyclic-AMP over control levels detected using a homogeneous time resolved fluorescence (HTRF) format. Compounds were determined to be “full” or “partial” agonists based on the maximum level of cAMP accumulated compared to the control compound isoproterenol which is a full agonist in this assay system. Concentration response curves were generated for test compounds and the EC50 (molar concentration of the agonist which produced 50% of the maximal response for that compound) was determined. These assays were performed using a protocol based on the original description of the assay by Baker, J. G. (2005) Brit. J. Pharmacol.; 144:317-322.
EC50 determinations for the compounds presented above are seen in the third column of Table 1 (Beta 2 EC50).

[2] = biological target: T1, human recombinant beta-2 adrenoreceptors; assay: Beta-2 adrenoceptor binding assay, displacement of [3H](−)CGP-12177; settings: CHO cells expressing human beta-2 adrenoreceptors, [3H](−)CGP-12177 0.3 nM, 120 min
Experimental: Beta-2 Adrenoceptor Binding Assay
Test compounds were incubated for 120 min with Chinese hamster oocyte (CHO) cells expressing the human recombinant beta-2 adrenoreceptors. Binding of test compounds to the beta-2 adrenoreceptors was determined by measuring the displacement of the radiolabeled ligand [^3H](−)CGP-12177 (0.3 nM) from the receptor measured by a scintillation counting. Concentration response curves were generated for test compounds and the IC50 (molar concentration of the compound which produced 50% inhibition for the maximal response for that compound) was determined. These assays were performed using a protocol based on the original description of the assay by Joseph et al., (2004) Naun.-Sch. Arch. Pharm.; 369:525-532.
IC50 determinations for the compounds presented above are seen in the second column of Table 1 (Beta 2 IC50).

Human recombinant PDE4B2 = biological target: T2, Human recombinant PDE4B2 (Homo sapiens, UniProt Q07343); assay: Inhibition of PDE4B2 enzyme activity (PDE Glo Assay); format: biochemical; settings: human recombinant PDE4B2, 50 nM cAMP; read-out: PDE4 IC50
T2 construct: purchased BPS Bioscience
T2 sequence (Q07343 1-564 isoform Q07343-2): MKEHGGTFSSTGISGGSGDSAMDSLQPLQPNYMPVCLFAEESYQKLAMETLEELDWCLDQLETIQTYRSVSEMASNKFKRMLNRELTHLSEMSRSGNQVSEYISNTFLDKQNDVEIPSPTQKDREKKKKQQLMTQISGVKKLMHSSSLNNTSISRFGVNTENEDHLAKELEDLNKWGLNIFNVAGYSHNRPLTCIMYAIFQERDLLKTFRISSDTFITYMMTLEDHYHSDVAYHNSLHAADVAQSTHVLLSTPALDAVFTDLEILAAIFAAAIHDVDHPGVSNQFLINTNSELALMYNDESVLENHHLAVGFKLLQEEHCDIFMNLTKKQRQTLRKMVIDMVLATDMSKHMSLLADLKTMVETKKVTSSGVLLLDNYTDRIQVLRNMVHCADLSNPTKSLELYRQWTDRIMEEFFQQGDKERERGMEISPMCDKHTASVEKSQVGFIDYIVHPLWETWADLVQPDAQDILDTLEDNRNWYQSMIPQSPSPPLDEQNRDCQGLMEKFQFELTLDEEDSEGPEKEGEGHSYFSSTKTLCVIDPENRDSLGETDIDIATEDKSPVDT
Experimental: Inhibition of PDE4B4 Enzyme Activity
The inhibitory activity of test compounds were determined using the PDE Glo Assay (Promega, V1361). The PDE-Glo Reaction Buffer was prepared (1 mL 5× buffer+4 mL water) and 150 nM solution of test compound dissolved in the Reaction Buffer, followed by 1:3 serial dilutions into Reaction Buffer. […] Human recombinant PDE4B2 (BPS Bioscience) was added to test compound in Reaction Buffer at a concentration of 0.12 nM per reaction. The enzyme and test compound were pre-incubated together at rt for 10 min. 50 nM of the enzyme substrate cAMP was then added to initiate the enzyme reaction, with the reaction terminated after one hour. Termination Buffer (1 mL 5× termination buffer+3.9 mL water+100 μL of 100 mM IBMX (ICN Chemicals, in DMSO)), was added to each reaction well to terminate the reaction. Detection Buffer (1 mL 5×PDE-Glo Detection buffer+3.96 mL water+40 μL PKA (supplied in kit)) was added to the cAMP-enzyme-test compound mix and this secondary reaction proceeded for 20 minutes at rt. An equal volume of Kinase Glo Reagent was then added to the reaction mixture and after 10 min luminescence was measured using a luminometer (EnVision, 0.1 sec read for luminescence). Luminescence values were […] related to levels of cAMP in the reaction mixture. Data were plotted as relative light units (RLU) versus test compound concentration and the IC50 determined using GraphPad Prism 5.0, using a nonlinear curve fit in a single-site binding model.
IC50 determinations for the compounds presented above are seen in the first column of Table 1 (PDE4 IC50).

[3] = system: LPS-induced TNF-α release from human peripheral blood mononuclear cells (PBMC); assay: Inhibition of LPS-induced TNF-α release from human PBMC; format: cell-based; settings: LPS 0.4 ng/mL, 6 h, presence or absence of ICI-118551 not given
Source text: Inhibition of Lipopolysaccharide (LPS)-Induced Tumour Necrosis Factor Alpha (TNF-α) Release from Human Peripheral Blood Mononuclear Cells (PBMC)
Human whole blood was drawn from donors and cell purification initiated within two hours. Peripheral blood mononuclear cells (PBMC) were purified using a standard Ficoll gradient purification technique and aliquoted at a concentration of 100,000 cells/well in 96 well plates. Beta-2 adrenoreceptor agonists are also anti-inflammatory for some immune cells expressing the receptor and in this assay they can inhibit tumor necrosis factor-alpha (TNF-α) production. Therefore PBMC were pre-incubated for 30 min in the presence of the beta-2 adrenoreceptor antagonist ICI-118551 (3-(isopropylamino)-1-[(7-methyl-4-indanyl)oxy]butan-2-ol) (10 μM) to determine the PDE4 directed activity of test compounds, and in the absence of ICI-118551 for the combined PDE4 and beta-2 receptor directed activity. Test compounds were dissolved in DMSO and diluted in buffer (final DMSO concentration of 0.1% v/v) and were then added to the cell suspensions and pre-incubated for a further 1 h at 37° C. LPS solution was then added (0.4 ng/mL) and the cells incubated for a further 6 h. At the end of the incubation period the cell supernatants were collected and TNF-α was measured using a Procarta Cytokine Assay Kit (Affymetrix, Santa Clara, Calif.) according to the manufacturers' instructions. Data were analyzed using MiraiBio Masterplex QT v4.0 software (MasterPlex Version 1.0.1.18 Copyright 2008, Hitachi Software Engineering Co., Ltd) and used to extrapolate Mean Fluorescence Intensity (MFI) into concentrations of TNF-α and mean values from replicate wells were determined. Inhibition curves were plotted using a nonlinear curve fit employing a single-site binding model to determine the IC50 value for each test compound in the presence or absence of ICI-118551 using GraphPad Prism 5 for Windows, version 5.02 (GraphPad Software, San Diego Calif.).
EC50 determinations for the compounds presented above are seen in the fourth column of Table 1 (PBMC TNF EC50).

T1 sequence (P07550 whole entry): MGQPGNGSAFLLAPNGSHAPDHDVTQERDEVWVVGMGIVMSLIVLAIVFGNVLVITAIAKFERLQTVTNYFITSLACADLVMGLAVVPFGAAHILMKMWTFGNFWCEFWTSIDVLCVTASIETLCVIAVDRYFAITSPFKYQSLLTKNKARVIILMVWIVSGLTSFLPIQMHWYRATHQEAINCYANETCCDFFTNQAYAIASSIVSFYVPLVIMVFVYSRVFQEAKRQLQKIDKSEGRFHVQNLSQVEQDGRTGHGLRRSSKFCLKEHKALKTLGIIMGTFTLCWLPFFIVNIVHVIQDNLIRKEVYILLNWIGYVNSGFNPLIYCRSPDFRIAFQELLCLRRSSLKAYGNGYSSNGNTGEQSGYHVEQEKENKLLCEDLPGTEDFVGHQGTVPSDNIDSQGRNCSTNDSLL

SMILES | EC50 [1] [nM] | IC50 [2] [nM] | IC50 (Human recombinant PDE4B2) [nM] | EC50 [3] [nM]
CCc1nc2c(cnn2CC)c(NC2CCOCC2)c1CNC(=O)c1cccc(CNC[C@H](O)c2ccc(O)c(CO)c2)c1 [Example 7, (R)—N-[[1,6-Diethyl-4-[(tetrahydro-2H-pyran-4-yl)amino]-1H-pyrazolo[3,4-b]pyridin-5-yl]methyl]-3-[[[2-hydroxy-2-[4-hydroxy-3-(hydroxymethyl)phenyl]ethyl]amino]methyl]benzamide] | > 300 | > 300 | < 100 | > 300
CCc1nc2c(cnn2CC)c(NC2CCOCC2)c1CNC(=O)c1ccc(CCCCCNC[C@H](O)c2ccc(O)c3[nH]c(=O)ccc23)cc1 [Example 9, (R)—N-[[1,6-diethyl-4-[(tetrahydro-2H-pyran-4-yl)amino]-1H-pyrazolo[3,4-b]pyridin-5-yl]methyl]-4-[5-[[2-hydroxy-2-(8-hydroxy-2-oxo-1,2-dihydroquinolin-5-yl)ethyl]amino]pentyl]benzamide] | < 100 | < 100 | < 100 | < 100
CCc1nc2c(cnn2CC)c(NC2CCOCC2)c1CNC(=O)c1ccc(CNC[C@H](O)c2ccc(O)c(CO)c2)cc1 [Example 8, (R)—N-[[1,6-diethyl-4-[(tetrahydro-2H-pyran-4-yl)amino]-1H-pyrazolo[3,4-b]pyridin-5-yl]methyl]-4-[[[2-hydroxy-2-[4-hydroxy-3-(hydroxymethyl)phenyl]ethyl]amino]methyl]benzamide] | > 300 | > 300 | < 100 | < 300
CCc1nc2c(cnn2CC)c(NC2CCOCC2)c1CNC(=O)c1ccc(CNC[C@H](O)c2ccc(O)c3[nH]c(=O)ccc23)cc1 [Example 6, (R)—N-[[1,6-diethyl-4-[(tetrahydro-2H-pyran-4-yl)amino]-1H-pyrazolo[3,4-b]pyridin-5-yl]methyl]-4-[[[2-hydroxy-2-(8-hydroxy-2-oxo-1,2-dihydroquinolin-5-yl]ethyl]amino]methyl]benzamide] | < 100 | > 300 | < 100 | < 100
CCc1nc2c(cnn2CC)c(NC2CCOCC2)c1CNC(=O)c1cccc(CC(C)NC[C@H](O)c2ccc(O)c3[nH]c(=O)ccc23)c1 (stereo partly drawn) [Example 1, N-[[1,6-Diethyl-4-[(tetrahydro-2H-pyran-4-yl)amino]-1H-pyrazolo[3,4-b]pyridin-5-yl]methyl]-3-[2-[[(R)-2-hydroxy-2-(8-hydroxy-2-oxo-1,2-dihydroquinolin-5-yl)ethyl]amino]propyl]benzamide] | < 100 | < 100 | < 100 | < 100
CCc1nc2c(cnn2CC)c(NC2CCOCC2)c1CNC(=O)Nc1ccc(CCCCCNC[C@H](O)c2ccc(O)c3[nH]c(=O)ccc23)cc1 [Example 12, (R)-1-((1,6-diethyl-4-((tetrahydro-2H-pyran-4-yl)amino)-1H-pyrazolo[3,4-b]pyridin-5-yl)methyl)-3-(4-(5-((2-hydroxy-2-(8-hydroxy-2-oxo-1,2-dihydroquinolin-5-yl)ethyl)amino)pentyl)phenyl)urea] | < 100 | < 100 | < 100 | < 100
CCc1nc2c(cnn2CC)c(NC2CCOCC2)c1CNC(=O)c1cccc(CC(C)NC[C@H](O)c2ccc(O)c(CO)c2)c1 (stereo partly drawn) [Example 2, N-[[1,6-Diethyl-4-[(tetrahydro-2H-pyran-4-yl)amino]-1H-pyrazolo[3,4-b]pyridin-5-yl]methyl]-3-[2-[[(R)-2-hydroxy-2-[4-hydroxy-3-(hydroxymethyl)phenyl]ethyl]amino]propyl]benzamide] | < 100 | > 300 | < 100 | < 100
CCc1nc2c(cnn2CC)c(NC2CCOCC2)c1CNC(=O)Nc1ccc(C#CCCCNC[C@H](O)c2ccc(O)c3c2OCC(=O)N3)cc1 [Example 15] | < 100 | < 100 | – | < 100
CCc1nc2c(cnn2CC)c(NC2CCOCC2)c1CNc1c(Nc2ccc(CCCCCNC[C@H](O)c3ccc(O)c4[nH]c(=O)ccc34)cc2)c(=O)c1=O [Example 13, (R)-3-(((1,6-diethyl-4-((tetrahydro-2H-pyran-4-yl)amino)-1H-pyrazolo[3,4-b]pyridin-5-yl)methyl)amino)-4-((4-(5-((2-hydroxy-2-(8-hydroxy-2-oxo-1,2-dihydroquinolin-5-yl)ethyl)amino)pentyl)phenyl)amino)cyclobut-3-ene-1,2-dione] | < 100 | < 100 | – | < 100
CCc1nc2c(cnn2CC)c(NC2CCOCC2)c1CNC(=O)c1cccc(CC(C)(C)NC[C@H](O)c2ccc(O)c(CO)c2)c1 [Example 3, (R)—N-[[1,6-Diethyl-4-[(tetrahydro-2H-pyran-4-yl)amino]-1H-pyrazolo[3,4-b]pyridin-5-yl]methyl]-3-[2-[[2-hydroxy-2-[4-hydroxy-3-(hydroxymethyl)phenyl]ethyl]amino]-2-methylpropyl]benzamide] | < 300 | < 300 | < 100 | < 100
CCc1nc2c(cnn2CC)c(NC2CCOCC2)c1CNC(=O)Nc1ccc(C#CCCCNC[C@H](O)c2ccc(O)c3[nH]c(=O)ccc23)cc1 [Example 11] | < 100 | < 100 | < 100 | < 100
CCc1nc2c(cnn2CC)c(NC2CCOCC2)c1CNC(=O)Nc1ccc(CCCCOCCCCCCNC[C@H](O)c2ccc(O)c3[nH]c(=O)ccc23)cc1 [Example 14, (R)-1-((1,6-diethyl-4-((tetrahydro-2H-pyran-4-yl)amino)-1H-pyrazolo[3,4-b]pyridin-5-yl)methyl)-3-(4-(4-((6-((2-hydroxy-2-(8-hydroxy-2-oxo-1,2-dihydroquinolin-5-yl)ethyl)amino)hexyl)oxy)butyl)phenyl)urea] | < 100 | < 100 | – | < 100
CCc1nc2c(cnn2CC)c(NC2CCOCC2)c1CNC(=O)CCCCCCCNC[C@H](O)c1ccc(O)c2[nH]c(=O)ccc12 [Example 10, (R)—N-[[1,6-Diethyl-4-[(tetrahydro-2H-pyran-4-yl)amino]-1H-pyrazolo[3,4-b]pyridin-5-yl]methyl]-8-[[2-hydroxy-2-(8-hydroxy-2-oxo-1,2-dihydroquinolin-5-yl)ethyl]amino]octanamide] | < 100 | > 300 | < 100 | < 100
